Results taken from patent publication US20060281771A1, “SYNERGISTIC MODULATION OF FLT3 KINASE USING AMINOQUINOLINE AND AMINOQUINAZOLINE KINASE MODULATORS” (priority 2005, published 2006).

Assays:
[1] = test system: MV4-11 cells; assay: Inhibition of MV4-11 cell proliferation (CellTiterGlo, 72 h); format: cell-based; conditions: Homo sapiens; 72 h growth inhibition
Protocol: To assess the cellular potency of the FLT3 inhibitors of Formula I′, FLT3 specific growth inhibition was measured in the leukemic cell line MV4-11 (ATCC Number: CRL-9591). […] MV4-11 cells cannot grow and survive without active FLT3ITD.
To measure proliferation inhibition by test compounds, the luciferase based CellTiterGlo reagent (Promega), which quantifies total cell number based on total cellular ATP concentration, was used. Cells are plated at 10,000 cells per well in 100 ul of in RPMI media containing penn/strep, 10% FBS and 1 ng/ml GM-CSF or 1 ng/ml IL-3 for MV4-11 and Baf3 cells respectively.
Compound dilutions or 0.1% DMSO (vehicle control) are added to cells and the cells are allowed to grow for 72 hours at standard cell growth conditions (37° C., 5% CO2). For activity measurements in MV4-11 cells grown in 50% plasma, cells were plated at 10,000 cells per well in a 1:1 mixture of growth media and human plasma (final volume of 100 μL). To measure total cell growth an equal volume of CellTiterGlo reagent was added to each well, according to the manufacturer's instructions, and luminescence was quantified. Total cell growth was quantified as the difference in luminescent counts (relative light units, RLU) of cell number at Day 0 compared to total cell number at Day 3 (72 hours of growth and/or compound treatment). One hundred percent inhibition of growth is defined as an RLU equivalent to the Day 0 reading. Zero percent inhibition was defined as the RLU signal for the DMSO vehicle control at Day 3 of growth. All data points are an average of triplicate samples. […] Inhibition and IC50 data analysis was done with GraphPad Prism using a non-linear regression fit with a multiparamater, sigmoidal dose-response (variable slope) equation.
MV4-11 cells express the FLT3 internal tandem duplication mutation, and thus are entirely dependent upon FLT3 activity for growth. […] In contrast, the Baf3 cell proliferation is driven by the cytokine IL-3 and thus are used as a non-specific toxicity control for test compounds.

[2] = biological target: T1, wild-type FLT3 phosphorylation in Baf3 FLT3 cells (Homo sapiens, UniProt P36888); assay: Cell-based FLT3 receptor ELISA; conditions: FLT ligand-induced FLT3 phosphorylation
T1 construct: host or cells: Baf3 (murine B cell lymphoma line)
T1 sequence (P36888 27-993): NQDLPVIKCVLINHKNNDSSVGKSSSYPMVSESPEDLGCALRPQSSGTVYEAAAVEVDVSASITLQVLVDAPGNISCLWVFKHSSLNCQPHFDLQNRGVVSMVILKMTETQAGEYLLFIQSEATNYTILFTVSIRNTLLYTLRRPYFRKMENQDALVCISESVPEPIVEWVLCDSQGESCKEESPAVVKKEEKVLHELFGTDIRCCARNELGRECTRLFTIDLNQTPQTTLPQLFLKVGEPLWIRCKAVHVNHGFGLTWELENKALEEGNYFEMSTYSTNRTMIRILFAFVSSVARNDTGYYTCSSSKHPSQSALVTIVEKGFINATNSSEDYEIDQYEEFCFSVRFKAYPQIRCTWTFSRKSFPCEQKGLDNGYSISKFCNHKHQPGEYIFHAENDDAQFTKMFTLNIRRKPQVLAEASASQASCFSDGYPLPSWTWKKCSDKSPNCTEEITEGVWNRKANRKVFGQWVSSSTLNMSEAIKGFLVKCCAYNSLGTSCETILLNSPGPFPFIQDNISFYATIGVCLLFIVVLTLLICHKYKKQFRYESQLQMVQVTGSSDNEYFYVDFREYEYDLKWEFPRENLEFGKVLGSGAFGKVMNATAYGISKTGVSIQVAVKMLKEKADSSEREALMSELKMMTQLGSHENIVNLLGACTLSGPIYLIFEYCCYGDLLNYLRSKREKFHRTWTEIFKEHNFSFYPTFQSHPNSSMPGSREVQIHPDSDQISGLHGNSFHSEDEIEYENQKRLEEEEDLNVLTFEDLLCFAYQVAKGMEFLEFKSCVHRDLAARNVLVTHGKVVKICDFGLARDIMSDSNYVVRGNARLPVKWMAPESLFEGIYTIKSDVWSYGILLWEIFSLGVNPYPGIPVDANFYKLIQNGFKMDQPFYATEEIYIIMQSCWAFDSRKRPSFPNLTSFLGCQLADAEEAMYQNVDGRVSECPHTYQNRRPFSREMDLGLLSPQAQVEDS
Protocol: Specific cellular inhibition of FLT ligand-induced wild-type FLT3 phosphorylation was measured in the following manner: Baf3 FLT3 cells overexpressing the FLT3 receptor were obtained from Dr. Michael Heinrich (Oregon Health and Sciences University). The Baf3 FLT3 cell lines were created by stable transfection of parental Baf3 cells (a murine B cell lymphoma line dependent on the cytokine IL-3 for growth) with wild-type FLT3. Cells were selected for their ability to grow in the absence of IL-3 and in the presence of FLT3 ligand.
Baf3 cells were maintained in RPMI 1640 with 10% FBS, penn/strep and 10 ng/ml FLT ligand at 37° C., 5% CO2. To measure direct inhibition of the wild-type FLT3 receptor activity and phosphorylation a sandwich ELISA method was developed similar to those developed for other RTKs (see Sadick, M D, Sliwkowski, M X, Nuijens, A, Bald, L, Chiang, N, Lofgren, J A, Wong W L T. Analysis of Heregulin-Induced ErbB2 Phosphorylation with a High-Throughput Kinase Receptor Activation Enzyme-Linked Immunsorbent Assay, Analytical Biochemistry. 1996; 235:207-214 and Baumann C A, Zeng L, Donatelli R R, Maroney A C. Development of a quantitative, high-throughput cell-based enzyme-linked immunosorbent assay for detection of colony-stimulating factor-1 receptor tyrosine kinase inhibitors. J Biochem Biophys Methods. 2004; 60:69-79.). 200 μL of Baf3FLT3 cells (1×10^6/mL) were plated in 96 well dishes in RPMI 1640 with 0.5% serum and 0.01 ng/mL IL-3 for 16 hours prior to 1 hour compound or DMSO vehicle incubation. Cells were treated with 100 ng/mL Flt ligand (R&D Systems Cat# 308-FK) for 10 min. at 37° C. Cells were pelleted, washed and lysed in 100 ul lysis buffer (50 mM Hepes, 150 mM NaCl, 10% Glycerol, 1% Triton-X-100, 10 mM NaF, 1 mM EDTA, 1.5 mM MgCl2, 10 mM NaPyrophosphate) supplemented with phosphatase (Sigma Cat# P2850) and protease inhibitors (Sigma Cat #P8340). Lysates were cleared by centrifugation at 1000×g for 5 minutes at 4° C. Cell lysates were transferred to white wall 96 well microtiter (Costar #9018) plates coated with 50 ng/well anti-FLT3 antibody (Santa Cruz Cat# sc-480) and blocked with SeaBlock reagent (Pierce Cat#37527). Lysates were incubated at 4° C. for 2 hours. Plates were washed 3× with 200 ul/well PBS/0.1% Triton-X-100. Plates were then incubated with 1:8000 dilution of HRP-conjugated anti-phosphotyrosine antibody (Clone 4G10, Upstate Biotechnology Cat#16-105) for 1 hour at room temperature. Plates were washed 3× with 200 ul/well PBS/0.1% Triton-X-100. Signal detection with Super Signal Pico reagent (Pierce Cat#37070) was done according to manufacturer's instruction with a Berthold microplate luminometer. All data points are an average of triplicate samples. […] Inhibition and IC50 data analysis was done with GraphPad Prism using a non-linear regression fit with a multiparamater, sigmoidal dose-response (variable slope) equation.

IC50 [1] | IC50 [2] | SMILES
0.001 µM | 0.001 µM | COCCOc1ccc2c(N3CCC(NC(=O)Nc4ccc(C(C)C)cc4)C3)ncnc2c1 (stereo not drawn) [Compound 71, 1-(4-Isopropyl-phenyl)-3-{1-[7-(2-methoxy-ethoxy)-quinazolin-4-yl]-pyrrolidin-3-yl}-urea]
0.001 µM | 0.001 µM | COc1cc2ncnc(N3CCC(NC(=O)Nc4ccc(C(C)C)cc4)CC3)c2cc1OC [Compound 66, 1-[1-(6,7-Dimethoxy-quinazolin-4-yl)-piperidin-4-yl]-3-(4-isopropyl-phenyl)-urea]
0.177 µM | 0.004 µM | CC(C)c1ccc(NC(=O)NC2CCN(c3ncnc4cc(OCCN5CCCC5=O)ccc34)CC2)cc1 [Compound 74, 1-(4-Isopropyl-phenyl)-3-(1-{7-[2-(2-oxo-pyrrolidin-1-yl)-ethoxy]-quinazolin-4-yl}-piperidin-4-yl)-urea]
0.007 µM | 0.18 µM | COc1cc2ncnc(N3CCC(NC(=O)Nc4ccc(OC(C)C)cc4)CC3)c2cc1OC [Compound 58, 1-[1-(6,7-Dimethoxy-quinazolin-4-yl)-piperidin-4-yl]-3-(4-isopropoxy-phenyl)-urea]
0.245 µM | 0.03 µM | CC(C)c1ccc(NC(=O)NC2CCN(c3ncnc4cc(F)ccc34)CC2)cc1 [Compound 72, 1-[1-(7-Fluoro-quinazolin-4-yl)-piperidin-4-yl]-3-(4-isopropyl-phenyl)-urea]
0.941 µM | 0.016 µM | COc1cc2ncnc(N3CCC(NC(=O)Nc4ccc(N(C)C)cc4)CC3)c2cc1OC [Compound 62, 1-[1-(6,7-Dimethoxy-quinazolin-4-yl)-piperidin-4-yl]-3-(4-dimethylamino-phenyl)-urea]
0.208 µM | 0.109 µM | COCCOc1ccc2c(N3CCC(NC(=O)Nc4ccc(C(C)C)cc4)CC3)ncnc2c1 [Compound 73, 1-(4-Isopropyl-phenyl)-3-{1-[7-(2-methoxy-ethoxy)-quinazolin-4-yl]-piperidin-4-yl}-urea]
0.502 µM | 0.02 µM | CC(C)c1ccc(NC(=O)NC2CCN(c3ncnc4ccccc34)CC2)cc1 [Compound 63, 1-(4-Isopropyl-phenyl)-3-(1-quinazolin-4-yl-piperidin-4-yl)-urea]
0.016 µM | 0.011 µM | COc1ccc2ncnc(N3CCC(NC(=O)Nc4ccc(C(C)C)cc4)CC3)c2c1 [Compound 64, 1-(4-Isopropyl-phenyl)-3-[1-(6-methoxy-quinazolin-4-yl)-piperidin-4-yl]-urea]
0.128 µM | < 0.001 µM | CC(C)c1ccc(NC(=O)NC2CCN(c3ncnc4cc(F)ccc34)C2)cc1 (stereo not drawn) [Compound 69, 1-[1-(7-Fluoro-quinazolin-4-yl)-pyrrolidin-3-yl]-3-(4-isopropyl-phenyl)-urea]
0.47 µM | 1.4 µM | COc1cc2ncnc(N3CCC(NC(=O)Nc4ccc(OC5CCCC5)cc4)CC3)c2cc1OC [Compound 67, 1-(4-Cyclopentyloxy-phenyl)-3-[1-(6,7-dimethoxy-quinazolin-4-yl)-piperidin-4-yl]-urea]
0.021 µM | 0.08 µM | CC(C)c1ccc(NC(=O)NC2CCN(c3ncnc4cc(OCCN5CCCC5=O)ccc34)C2)cc1 (stereo not drawn) [Compound 70, 1-(4-Isopropyl-phenyl)-3-(1-{7-[2-(2-oxo-pyrrolidin-1-yl)-ethoxy]-quinazolin-4-yl}-pyrrolidin-3-yl)-urea]
0.56 µM | 0.42 µM | COc1cc2ncnc(N3CCC(OC(=O)Nc4ccc(OC5CCCC5)cc4)CC3)c2cc1OC [Compound 55, (4-Cyclopentyloxy-phenyl)-carbamic acid 1-(6,7-dimethoxy-quinazolin-4-yl)-piperidin-4-yl ester]
0.172 µM | 0.046 µM | COc1cc2ncnc(N3CCCC(COC(=O)Nc4ccc(OC5CCCC5)cc4)C3)c2cc1OC (stereo not drawn) [Compound 57, (4-Cyclopentyloxy-phenyl)-carbamic acid 1-(6,7-dimethoxy-quinazolin-4-yl)-piperidin-3-ylmethyl ester]
1.7 µM | 0.082 µM | COc1cc2ncnc(N3CCC(COC(=O)Nc4ccc(C(C)C)cc4)CC3)c2cc1OC [Compound 22, (4-Isopropyl-phenyl)-carbamic acid 1-(6,7-dimethoxy-quinazolin-4-yl)-piperidin-4-ylmethyl ester]
0.528 µM | 0.018 µM | COc1cc2ncnc(N3CCC(NC(=O)Nc4ccc(N5CCCC5)cc4)CC3)c2cc1OC [Compound 60, 1-[1-(6,7-Dimethoxy-quinazolin-4-yl)-piperidin-4-yl]-3-(4-pyrrolidin-1-yl-phenyl)-urea]
0.41 µM | 0.043 µM | COc1cc2ncnc(N3CCC(NC(=O)Nc4ccc(N5CCOCC5)cc4)CC3)c2cc1OC [Compound 59, 1-[1-(6,7-Dimethoxy-quinazolin-4-yl)-piperidin-4-yl]-3-(4-morpholin-4-yl-phenyl)-urea]
0.001 µM | 0.001 µM | CC(C)c1ccc(NC(=O)NC2CCN(c3ncnc4cc(OCCCN5CCN(C)CC5)ccc34)CC2)cc1 [Compound 75, 1-(4-Isopropyl-phenyl)-3-(1-{7-[3-(4-methyl-piperazin-1-yl)-propoxy]-quinazolin-4-yl}-piperidin-4-yl)-urea]
